The text below walks through data of patent publication US8354398B2, “Substituted isoxazole compounds” (Bristol-Myers Squibb Company, priority 2009, dated 2013).

In data set [1] the test system is circulating lymphocytes. Kind of data set: Blood Lymphocyte Reduction Assay (BLR) in mice. The class given is in vivo. As to conditions: BALB/c mice, oral, vs vehicle group. As to the method: (§1) Lewis rats or BALB/c mice were dosed orally with test article (as a solution or suspension in the vehicle) or vehicle alone (polyethylene glycol 300, “PEG300”). Blood was drawn at 4 hr and 24 h by retro-orbital bleeding. Blood lymphocyte counts were determined on an ADVIA® 120 Hematology Analyzer (Siemens Healthcare Diagnostics). The results were measured as a reduction in the percentage of circulating lymphocytes as compared to the vehicle treated group at the 4 hr and 24 hr measurement. The results represent the average results of all animals within each treatment group (n=3-4).
(§2) Examples 1 and 2 were tested in the Blood Lymphocyte Reduction assay (BLR) described hereinabove and the results are shown in Table D for rats and Table E for mice.

The target in data set [2] is T1, S1P3 (Homo sapiens, UniProt Q99500). Kind of data set: Method B: Receptor [35S] GTPγS SPA Binding Assay, membranes from S1P3 transfected CHO cells. The class given is biochemical. Also on record: expressed in transfected cells; host or cells: CHO cells. As to conditions: S1P3 transfected CHO cell membranes, NC = a satisfactory dose response curve was not obtained. On the procedure:
(§3) Membranes prepared from S1P1 or S1P3 transfected CHO cells (2 μg protein) were incubated in 96-well white plates (CORNING® 3693) with test compounds diluted in DMSO, in 50 μl of reaction mixture containing 7.5 μl WGA-PVT beads (20 mg/ml), and 5 μM GDP, 20 mM HEPES pH 7.4, 100 mM NaCl, 1 mM EDTA, 5 mM MgCl2, 10 μg/ml saponin, 0.1% BSA, and 1 μM leupeptin. The assay was initiated with the addition of 25 μl of 0.2 nM [^35S]-GTPγS (1250 Ci/mmol; NEN) in assay buffer. After 90 min incubation at room temperature, spin the plate at 1000 rpm for 5 min. The bound radionuclides were measured at TOPCOUNT®, expressed as % response relative to S1P (1 μM) activation. Data was analyzed using the four parameter logistic equation in Excel. The four parameters in the equation, Y=A+((B−A)/(1+((EC50/X)^D))), are described as following: A is the Y value (agonist activity) at the bottom plateau; B is the Y value at the top plateau; EC50 is the X value (agonist concentration) when the response is halfway between bottom and top; D is Hill coefficient. Curves were not generated for compounds having Ymax values were below 50%.
(§4) Compounds of the present invention and Comparative Compound A were tested in the Receptor [^35S] GTPγS Binding Assays (Method A) and Receptor [35S] In some instances, the value is an average of multiple experiments where N is the number of experiments conducted that provided satisfactory dose response curves. When more than one batch of an example was tested, the value presented is from a batch which allowed a comparison of GTPγS S1P1 and GTPγS S1P3 in which the most number of experiments were performed. Preferably, the same batch was examined in Method A and Method B. Data was not averaged across different batches of an example compound.
On the technique in general: Binding of GTPγS marks nucleotide exchange on a G protein.
Target sequence in this assay (Q99500 whole entry, species assumed): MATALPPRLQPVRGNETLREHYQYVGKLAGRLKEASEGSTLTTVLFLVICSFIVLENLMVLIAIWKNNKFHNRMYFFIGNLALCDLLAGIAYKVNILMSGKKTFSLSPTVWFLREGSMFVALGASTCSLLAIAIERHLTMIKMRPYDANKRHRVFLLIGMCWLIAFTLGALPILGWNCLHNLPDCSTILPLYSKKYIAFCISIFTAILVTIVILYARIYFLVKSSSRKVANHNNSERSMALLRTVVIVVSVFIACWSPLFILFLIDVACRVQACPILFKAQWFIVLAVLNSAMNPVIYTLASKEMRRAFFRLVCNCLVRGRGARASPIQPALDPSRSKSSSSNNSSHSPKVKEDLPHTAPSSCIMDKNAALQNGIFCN

Data set [3] deals with circulating lymphocytes. Put plainly: Blood Lymphocyte Reduction Assay (BLR) in rats. The class given is in vivo. As to conditions: Lewis rats, oral, vs vehicle group. On the procedure: as §1, §2
In data set [4] the target is T1, S1P3. Put plainly: Method A: Receptor [35S] GTPγS Binding Assay, membranes from EDG3-Ga15-bla HEK293T cells. Conditions: EDG3-Ga15-bla HEK293T cell membranes. Also noted: expressed in transfected cells; host or cells: EDG3-Ga15-bla HEK293T cells. The class given is biochemical. On the procedure: (§5) Compounds were loaded in a 384 Falcon v-bottom plate (0.5 μl/well in a 3-fold dilution). Membranes prepared from S1P1/CHO cells or EDG3-Ga15-bla HEK293T cells were added to the compound plate (40 μl/well, final protein […]) with MULTIDROP®. [^35S]GTP (1250 Ci/mmol, Perkin Elmer) was diluted in assay buffer: 20 mM HEPES, pH7.5, 10 mM MgCl2, 150 mM NaCl, 1 mM EGTA, 1 mM DTT, 10 μM GDP, 0.1% fatty acid free BSA, and 10 mg/ml Saponin to 0.4 nM. 40 μl of the [^35S] GTP solution was added to the compound plate with a final concentration of 0.2 nM. The reaction was kept at room temperature for 45 min. At the end of incubation, all the mixtures in the compound plate were transferred to a 384 well FB filter plates via GPCR robot system. The filter plate was washed with water 4 times by using the modified manifold Embla plate washer and dried at 60° C. for 45 min. 30 μl of MicroScint 20 scintillation fluid was added to each well for counting at Packard TOPCOUNT®. EC50 is defined as the agonist concentration that corresponds to 50% of the Ymax (maximal response) obtained for each individual compound tested.
as §4
Target sequence in this assay (Q99500 whole entry): as the sequence (Q99500 whole entry, species assumed) above

The target in data set [5] is T2, S1P1 (Homo sapiens, UniProt P21453). Kind of data set: Method B: Receptor [35S] GTPγS SPA Binding Assay, membranes from S1P1 transfected CHO cells. The class given is biochemical. Also on record: expressed in transfected cells; host or cells: S1P1/CHO cells. As to the method:
as §3, §4

The target of data set [6] is T2, S1P1. Kind of data set: S1P1 Binding Assay (33P-S1P ligand competition, membranes from CHO cells). Also noted: expressed in transfected cells; host or cells: CHO cells. As to conditions: membranes of CHO cells expressing human S1P1; 0.03 nM 33P-S1P; 60 min room temperature. As to the method:
Membranes were prepared from CHO cells expressing human S1P1. Cells were dissociated in buffer containing 20 mM HEPES, pH 7.5, 50 mM NaCl, 2 mM EDTA and Protease Inhibitor cocktail (Roche), and disrupted on ice using the Polytron homogenizer. The homogenate was centrifuged at 20,000 rpm (48,000 g) and the supernatant was discarded. The membrane pellets were resuspended in buffer containing 50 mM HEPES, pH 7.5, 100 mM NaCl, 1 mM MgCl2, 2 mM EDTA and stored in aliquots at −80° C. after protein concentration determination.
Membranes (2 μg/well) and 0.03 nM final concentration of ^33P-S1P ligand (1 mCi/ml, American Radiolabeled Chemicals) were added to the compound plates. Binding was performed for 60 min at room temperature, terminated by collecting the membranes onto GF/B filter plates, and radioactivity was measured by TOPCOUNT®. The competition data of the test compounds over a range of concentrations was plotted as percentage inhibition of radioligand specific binding. The IC50 is defined as the concentration of competing ligand needed to reduce specific binding by 50%.
Compounds of the present invention and Comparative Compound A were tested in the S1P1 binding assay described hereinabove and the results rounded to two digits, shown in Table A were obtained. In some instances, the value is an average of multiple experiments where N is the number of experiments conducted that provided satisfactory dose response curves. When more than one batch of an example was tested, the value presented is from the batch which allowed a comparison of GTPγS S1P1 and GTPγS S1P3 in Method A (Data shown in Table B). Data was not averaged across different batches of an example compound.

Data set [7] has as its target T2, S1P1. Put plainly: Method A: Receptor [35S] GTPγS Binding Assay, membranes from S1P1/CHO cells. The class given is biochemical. Also noted: expressed in transfected cells; host or cells: S1P1/CHO cells. On the procedure:
as §5, §4

For data set [8] the following is noted: clinical studies, first 24 hours of treatment; cited from earlier work.
Data set [9] deals with circulating lymphocytes. Conditions: animals and humans; cited from earlier work.

T2 sequence (P21453 whole entry): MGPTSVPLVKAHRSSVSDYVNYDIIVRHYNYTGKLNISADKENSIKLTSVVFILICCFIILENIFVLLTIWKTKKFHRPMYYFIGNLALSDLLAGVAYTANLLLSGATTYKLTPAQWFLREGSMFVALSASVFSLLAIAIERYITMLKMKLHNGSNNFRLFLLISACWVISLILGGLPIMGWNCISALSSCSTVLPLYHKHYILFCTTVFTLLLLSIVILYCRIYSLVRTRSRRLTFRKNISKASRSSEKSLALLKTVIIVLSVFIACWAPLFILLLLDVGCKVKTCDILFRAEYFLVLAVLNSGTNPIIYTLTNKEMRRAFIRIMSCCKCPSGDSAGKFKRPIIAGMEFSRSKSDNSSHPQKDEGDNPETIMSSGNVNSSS

Usually EC50 stands for the concentration giving half of the maximal effect. Lower therefore signals an effect from little substance. The term IC50 denotes the concentration that gives 50% inhibition. Low values mean greater potency in that assay, high ones weaker potency in that assay. In the case of `O=C(O)C1CN(Cc2ccc(-c3noc(-c4noc(-c5ccccc5)c4C(F)(F)F)n3)cc2)C1` [Example 2, 1-(4-(5-(5-Phenyl-4-(trifluoromethyl)isoxazol-3-yl)-1,2,4-oxadiazol-3-yl)benzyl)azetidine-3-carboxylic acid], the “% reduction in lymphocytes at 4 hr.” value in [1] (0.001 mg/kg) was −26%; in [1] (0.01 mg/kg) it was −4%; in data set [1] (0.1 mg/kg), 70%; in data set [1] (1.0 mg/kg) it was 83%; in [3] (0.03 mg/kg) it was 70%; in data set [3] (0.3 mg/kg), 80%. In addition, the “% reduction in lymphocytes at 4 hr.” value in [3] (1.0 mg/kg) worked out at 84%. In addition, the “% reduction in lymphocytes at 24 hr.” value in data set [1] (0.001 mg/kg) was 17%; in data set [1] (0.01 mg/kg), 15%; in [1] (0.1 mg/kg), 62%; in data set [1] (1.0 mg/kg) it was 84%; in data set [3] (0.03 mg/kg) it was 56%; in data set [3] (0.3 mg/kg) it was 79%. In data set [3] (1.0 mg/kg), the “% reduction in lymphocytes at 24 hr.” value came to 85%. The EC50 in [2] was 350 nM; in [4], 3.6 µM; in data set [5] (Method B SPA, S1P1 transfected CHO cell membranes, NC = a satisfactory dose response curve was not obtained) it was 0.076 nM; in data set [7] (Method A, S1P1/CHO cell membranes) it was 1.7 nM. In addition, the “GTPγS S1P3/S1P1 (Method B)” value in [5] (ratio of GTPγS S1P3 EC50 to GTPγS S1P1 EC50, Method B) was 4,600. In data set [6], this compound returned an IC50 of 0.05 nM. Moreover, the “GTPγS S1P3/S1P1 (Method A)” value in [7] (ratio of GTPγS S1P3 EC50 to GTPγS S1P1 EC50, Method A) is on record as 2,100.
With `CCCCCCCCc1ccc(CCC(N)(CO)CO)cc1` [FTY720], the bradycardia on treatment entry in [8] is recorded as “results in bradycardia”. For the same compound, the circulating lymphocytes entry in data set [9] was “reduce circulating lymphocytes”.
